Reference: patent US6465654B2, “Process for preparing 1-substituted, 2-substituted 1H-imidazo[4, 5-c]quinoline-4-amines” (3M Innovative Properties Company, priority 1991, dated 2002)

Legend:
[1] = system: interferon-α; assay: Interferon-α induction in human cells, PBM; format: cell-based; settings: 24 hours
[2] = system: interferon; assay: Interferon induction in mice; format: in vivo; settings: mouse serum
Method: One hour later blood samples are withdrawn from the first group. The samples are pooled then centrifuged. The serum is removed from the centrifuge tube, split into two portions, then placed in freezing vials and maintained at −70° C. until analysis. This procedure is repeated at 2 hours with the second group of mice and at 4 hours with the third group of mice. Samples are assayed as described above in connection with the analysis of interferon induction in human cells. The results are expressed in the table below as α/β reference units/mL based on the value obtained for a mouse MU-1-IF standard. Results are shown in the table below wherein results designated as “<” a certain number indicate that interferon was not detectable in amounts above the lower sensitivity level of the assay.

[3] = system: vesicular stomatitis virus (VSV); assay: microbe, parasite or virus in culture; format: cell-based; settings: Vesicular stomatitis virus, read-out: VSV Yield Inhibition
[4] = system: interferon-α; assay: Interferon-α induction in human cells, diluted whole blood; format: cell-based; settings: 24 hours

Row | Structure (SMILES) | Interferon-α induction ([1]; dose concentration 0.01 μg/mL) | Interferon-α induction ([1]; dose concentration 0.10 μg/mL) | Interferon-α induction ([1]; dose concentration 0.50 μg/mL) | Interferon-α induction ([1]; dose concentration 1.0 μg/mL) | Interferon-α induction ([1]; dose concentration 5.0 μg/mL) | Interferon induction in mice ([2]; oral 0.3 mg/kg, 1 hr) [Reference Units/mL] | Interferon induction in mice ([2]; oral 0.3 mg/kg, 2 hr) [Reference Units/mL] | Interferon induction in mice ([2]; oral 0.3 mg/kg, 4 hr) [Reference Units/mL] | Interferon induction in mice ([2]; oral 1 mg/kg, 1 hr) | Interferon induction in mice ([2]; oral 1 mg/kg, 2 hr) [Reference Units/mL] | Interferon induction in mice ([2]; oral 1 mg/kg, 4 hr) | Interferon induction in mice ([2]; oral 3 mg/kg, 1 hr) | Interferon induction in mice ([2]; oral 3 mg/kg, 2 hr) [Reference Units/mL] | Interferon induction in mice ([2]; oral 3 mg/kg, 4 hr) | Interferon induction in mice ([2]; oral 10 mg/kg, 1 hr) [Reference Units/mL] | Interferon induction in mice ([2]; oral 10 mg/kg, 2 hr) [Reference Units/mL] | Interferon induction in mice ([2]; oral 10 mg/kg, 4 hr) | log reduction at 0.1 µg/mL [3] | log reduction at 0.5 µg/mL [3] | log reduction at 1 µg/mL [3] | further results
1 | COCc1nc2c(N)nc3ccccc3c2n1CC(C)(C)O [Example 96, 4-Amino-α,α-dimethyl-2-methoxymethyl-1H-imidazo[4,5-c]quinoline-1-ethanol] | <6.4 α Reference Units/mL | 1200 α Reference Units/mL | 460 α Reference Units/mL | 1000 α Reference Units/mL | 900 α Reference Units/mL | 2900 | 3400 | 620 | 3200 Reference Units/mL | 5000 | 1100 Reference Units/mL | 3000 Reference Units/mL | 10000 | 960 Reference Units/mL | 2900 | 4700 | ˜350 Reference Units/mL | 6 | 5 | 5 | Interferon-α induction ([1]; dose concentration 0.05 μg/mL): 44 α Reference Units/mL
2 | CC(C)Cn1c(C(C)(C)O)nc2c(N)nc3ccccc3c21 [Example 23, 4-Amino-α,α-dimethyl-1-(2-methylpropyl)-1H-imidazo[4,5-c]quinoline-2-methanol] |  |  |  |  |  |  |  |  |  |  |  |  |  |  |  |  |  |  |  |  | Interferon induction in mice ([2]; oral 30 mg/kg, 1 hr): 1200 Reference Units/mL; Interferon induction in mice ([2]; oral 30 mg/kg, 2 hr): 1200 Reference Units/mL; Interferon induction in mice ([2]; oral 30 mg/kg, 4 hr): 140 Reference Units/mL; Interferon-α induction ([4]; dose concentration 0.10 μg/mL): <1.8 α Reference Units/mL; Interferon-α induction ([4]; dose concentration 0.50 μg/mL): <1.8 α Reference Units/mL; Interferon-α induction ([4]; dose concentration 1.0 μg/mL): 84 α Reference Units/mL; Interferon-α induction ([4]; dose concentration 5.0 μg/mL): 250 α Reference Units/mL
3 | Nc1nc2ccccc2c2c1nc(CO)n2Cc1ccccc1 [Example 27, 4-Amino-1-phenylmethyl-1H-imidazo[4,5-c]-quinoline-2-methanol] | <4 α Reference Units/mL | 3300 α Reference Units/mL | 550 α Reference Units/mL | 370 α Reference Units/mL | 490 α Reference Units/mL | <45 | <45 | <45 | <45 Reference Units/mL | <45 | <45 Reference Units/mL | <59 Reference Units/mL | 230 | <45 Reference Units/mL | 130 | 690 | <45 Reference Units/mL | 4 | 3 | 4 | Interferon-α induction ([1]; dose concentration 0.05 μg/mL): 24 α Reference Units/mL
4 | CCOCc1nc2c(N)nc3ccccc3c2n1CC(C)C [Example 40, 2-Ethoxymethyl-1-(2-methylpropyl)-1H-imidazo[4,5-c]quinolin-4-amine] |  | 680 α Reference Units/mL | 230 α Reference Units/mL | 210 α Reference Units/mL | 210 α Reference Units/mL | 450 | 200 | <29 | 450 Reference Units/mL | 450 | 110 Reference Units/mL | 990 Reference Units/mL | 1100 | 210 Reference Units/mL | 1600 | 1600 | 170 Reference Units/mL |  |  | 7 | log reduction at 5 µg/mL [3]: 7; log reduction at 10 µg/mL [3]: 6
5 | CC(C)(O)Cn1c(CO)nc2c(N)nc3ccccc3c21 [Example 90, 4-Amino-α,α-dimethyl-2-hydroxymethyl-1H-imidazo[4,5-c]quinoline-1-ethanol] | <6.4 α Reference Units/mL | 3000 α Reference Units/mL | 640 α Reference Units/mL | 420 α Reference Units/mL | 580 α Reference Units/mL | <74 | <74 | <74 | <74 Reference Units/mL | <74 | <74 Reference Units/mL | ≦130 Reference Units/mL | 570 | ≦74 Reference Units/mL | 750 | 3500 | ≦140 Reference Units/mL | 5 | 4 | 5 | Interferon-α induction ([1]; dose concentration 0.05 μg/mL): 640 α Reference Units/mL
6 | CCOCc1nc2c(N)nc3cc(Cl)ccc3c2n1CC(C)(C)O [Example 85, 4-Amino-7-chloro-α,α-dimethyl-2-ethoxymethyl-1H-imidazo[4,5-c]quinoline-1-ethanol] |  | 86 α Reference Units/mL | 100 α Reference Units/mL | 220 α Reference Units/mL | 230 α Reference Units/mL | 670 | 670 | <250 | ˜980 Reference Units/mL | 3900 | ≦330 Reference Units/mL | 1500 Reference Units/mL | 4300 | ˜430 Reference Units/mL | 2200 | 5700 | ˜570 Reference Units/mL | 5 | 5 | 5 | 
